Consider four compounds from patent US4584382A, “Pyridyl acrylate compound” (priority 1984, dated 1986).

In one series the target is T1, H1 histamine receptor (Cavia porcellus, UniProt P31389).
T1 construct: The longitudinal muscle was isolated from the intact ileum of guinea-pigs; from tissue; host or cells: guinea-pig (Hartley, male) ileum longitudinal muscle
The series is described as follows: Antihistaminic activity: antagonism of histamine concentration-response curves in isolated guinea-pig ileum longitudinal muscle (Schild plot). In kind it is cell-based. To be noted: negative log of the antagonist concentration shifting the histamine control curve 2X to the right; one hour incubation; read-out: pA2 (converted). As to the method: The longitudinal muscle was isolated from the intact ileum of guinea-pigs (Hartley, male 250-400 g) and placed in an organ bath under 300 mg tension. After one hour of equilibration, cumulative concentration-response curves (Van Rossum, J. M., Arch. Int. Pharmacodyn. Ther. 143, 299-330, 1963) to histamine were obtained. Following washing, the tissues were incubated for one hour with the test compound and then a second histamine concentration-response curve was run. Shifts to the right of the agonist concentration-response curve produced by the antagonists were used to construct Schild plots (Arunlakshana, O. and Schild, H. O., Br. J. Pharmacol: 14, 48-58, 1959). Regression of Log (dr-1) on Log [B], where dr is an equiactive response in the presence and absence of antagonist and [B] is the molar concentration of antagonist, allowed an estimate of pA2, i.e. the negative log of the concentration of antagonist which shifts the control histamine concentration-response curve 2X to the right.

Series [1] can be described thus: Pharmacokinetic studies comparing relative distribution in brain and plasma. In kind it is in vivo. To be noted: rodents.
Series [2] is described as follows: Sedative effects (statement). It counts as in vivo. As to conditions: in contrast to the antihistamines in present use.
Series [3] can be described thus: Anticholinergic activity / side effects (statement). To be noted: in contrast to the antihistamines in present use.
Series [4] deals with H1 histamine receptor sites. The series is described as follows: Binding to H1 histamine receptor sites (statement). Also on record: species or system mammals including humans.
For series [5] the following is noted: human, in vivo; cited from earlier work.
For series [6] the following is noted: antihistamines now in use; cited from earlier work.
For series [7] the following is noted: clinical use; cited from earlier work.

Structures are written as SMILES.

T1 sequence (P31389 whole entry): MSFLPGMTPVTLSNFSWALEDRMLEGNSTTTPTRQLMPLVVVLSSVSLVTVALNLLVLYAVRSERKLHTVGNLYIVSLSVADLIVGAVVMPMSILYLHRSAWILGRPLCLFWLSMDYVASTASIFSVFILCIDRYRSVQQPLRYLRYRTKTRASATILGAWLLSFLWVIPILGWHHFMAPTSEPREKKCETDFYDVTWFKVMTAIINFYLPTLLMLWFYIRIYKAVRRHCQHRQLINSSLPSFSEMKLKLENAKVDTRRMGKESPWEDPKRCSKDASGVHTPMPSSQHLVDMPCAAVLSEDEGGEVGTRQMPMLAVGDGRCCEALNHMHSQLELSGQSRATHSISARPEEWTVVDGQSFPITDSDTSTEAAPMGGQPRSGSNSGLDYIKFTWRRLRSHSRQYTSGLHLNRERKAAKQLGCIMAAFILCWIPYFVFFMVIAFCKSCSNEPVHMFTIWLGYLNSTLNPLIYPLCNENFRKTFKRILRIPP

As for `O=C(O)/C=C/c1cccc(/C(=C/CN2CCCC2)c2ccc(C(F)(F)F)cc2)n1` [Compound of Formula (I), (E)-3-{6-[3-Pyrrolidino-1(4-Trifluoromethylphenyl)prop-1E-enyl]-2-pyridyl}acrylic acid], the Kb at H1 histamine receptor was 0.0398 nM. The brain penetration result in series [1] was “does not readily penetrate the brains of rodents”. For the same compound, the sedating effect entry in series [2] is “essentially not sedating”. Moreover, the anticholinergic side effects result in series [3] was “little or no anticholinergic side effects”. In addition, the “binding to H1 histamine receptor sites” value in series [4] is listed as “binds competitively to the H1 histamine receptor sites”.
Take `Cc1ccc(/C(=C\CN2CCCC2)c2ccccn2)cc1` [Triprolidine, (E)-1-(4-methylphenyl)-1-(2-pyridyl)-3-pyrrolidinoprop-1-ene]: the Kb at H1 histamine receptor was 0.0794 nM. In addition, the sedation and drowsiness entry in series [5] is “produces sedation and drowsiness in varying degrees in most patients”. Also, the anticholinergic activity entry in series [6] is given as “varying degrees of anticholinergic activity”. In series [7], the antihistamine potency entry is recorded as “one of the most potent antihistamines available”.
Turning to `CC(CN1c2ccccc2Sc2ccccc21)N(C)C` (centres unmarked) [promethazine], the anticholinergic activity entry in series [6] is “varying degrees of anticholinergic activity”.
As for `COc1ccc(CN(CCN(C)C)c2ccccn2)cc1` [pyrilamine], the anticholinergic activity result in series [6] is reported as “varying degrees of anticholinergic activity”.
